Laboratory results taken from patent US9616065B2, “Compositions useful in treating brain-related diseases or disorders and methods using same” (priority 2013, dated 2017).
Entries after “also recorded” stand apart in the source; their conditions may differ. Read-outs that look alike come from different tables or passages of the source.

Tests used:
SERT = target: T1, SERT (Homo sapiens, UniProt P31645); test: [3H]-serotonin uptake after preincubation with modulator; type: cell-based
T1 construct: The templates were full-length and nontagged human SERT in pcdna3.1; expressed in transfected cells; host or cells: COS-7, HEK293 or MDCK (uptake); COS-7 (efflux)
Method: (§1) COS-7, HEK293, and MDCK cells were maintained in Dulbecco modified Eagle medium (3.5 g/l glucose) supplemented with FBS (10% each) at 37° C. with 5% CO2. Uptake experiments were performed 2 days after transfecting DNAs (hSERT, human dopamine transporter [hDAT], chimeras or mutants, or empty vector for background) with TransIT-LT1 (Minis Bio LLC, Madison, Wis., USA) transfection reagent and plating the cells in 24- or 96-well plates.
(§2) The uptake was allowed to continue for 10 min at room temperature and was terminated by washing with PBS-CM. […] Vmax and KM are given as mean±S.D. of three independent experiments. […] EC50 values are given as mean±S.E.M. of at least five independent experiments. Statistical significance between vehicle and drug treatments was assessed using Student t-test or one-way analysis of variance (ANOVA) Dunnett's multiple-comparison test (p<0.05).

NET [1] = target: T2, NET (Homo sapiens, UniProt P23975); test: NET interaction with amphetamine in presence of modulator; type: cell-based
T2 construct: expressed in transfected cells
T2 sequence (P23975 whole entry): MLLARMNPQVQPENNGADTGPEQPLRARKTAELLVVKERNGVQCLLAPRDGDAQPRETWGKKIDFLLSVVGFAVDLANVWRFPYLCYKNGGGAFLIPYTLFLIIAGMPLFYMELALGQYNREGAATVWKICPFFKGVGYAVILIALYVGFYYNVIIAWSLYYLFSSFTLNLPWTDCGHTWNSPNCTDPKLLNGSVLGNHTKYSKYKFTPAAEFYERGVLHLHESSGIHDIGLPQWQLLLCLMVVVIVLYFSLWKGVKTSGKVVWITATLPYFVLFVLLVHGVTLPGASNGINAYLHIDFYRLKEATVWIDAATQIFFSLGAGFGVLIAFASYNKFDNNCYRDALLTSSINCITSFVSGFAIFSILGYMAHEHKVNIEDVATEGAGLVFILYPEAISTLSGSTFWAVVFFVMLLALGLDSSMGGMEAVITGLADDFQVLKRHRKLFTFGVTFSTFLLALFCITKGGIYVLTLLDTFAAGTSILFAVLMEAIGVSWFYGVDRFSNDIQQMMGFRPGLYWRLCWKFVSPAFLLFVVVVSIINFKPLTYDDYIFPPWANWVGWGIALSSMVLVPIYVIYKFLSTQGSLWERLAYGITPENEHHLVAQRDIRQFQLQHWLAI
Method: (§3) Mutants are functionally tested in transfected COS-7 cells. Based on the success of the approach that identified the A1 site, the critical residues identified elsewhere herein are tested for changes in uptake kinetics and amphetamine-mediated efflux. Following this initial screen, residues displaying altered activity are tested further in uptake inhibition and ligand displacement assays. For uptake, cells are washed with PBSCM (phosphate-buffered saline with 1 mM MgCl, 0.1 mM CaCl2, 100 μM ascorbic acid, 10 μM clorgyline, 100 μM pargyline, and 10 μM RO 41-0960). To initiate uptake, cells are incubated for 10 min at 25° C. with various concentrations of radiolabeled monoamine. Following uptake, cells are washed and radioactivity is counted using liquid scintillation counting. […] Apparent Km and Vmax are determined using nonlinear regression analysis. The interaction of WT and mutant MAT with psychostimulants and transporter inhibitors is assessed using uptake inhibition assays. Cells are transfected as described elsewhere herein, but before uptake is initiated the cells are preincubated with various concentrations of ligand for 10 min. Uptake is initiated and performed as described elsewhere herein.

hDAT = target: T3, hDAT (Homo sapiens, UniProt Q01959); test: [3H]-dopamine uptake after preincubation with modulator; type: cell-based
T3 construct: expressed in transfected cells; host or cells: COS-7, HEK293 or MDCK
T3 sequence (Q01959 whole entry): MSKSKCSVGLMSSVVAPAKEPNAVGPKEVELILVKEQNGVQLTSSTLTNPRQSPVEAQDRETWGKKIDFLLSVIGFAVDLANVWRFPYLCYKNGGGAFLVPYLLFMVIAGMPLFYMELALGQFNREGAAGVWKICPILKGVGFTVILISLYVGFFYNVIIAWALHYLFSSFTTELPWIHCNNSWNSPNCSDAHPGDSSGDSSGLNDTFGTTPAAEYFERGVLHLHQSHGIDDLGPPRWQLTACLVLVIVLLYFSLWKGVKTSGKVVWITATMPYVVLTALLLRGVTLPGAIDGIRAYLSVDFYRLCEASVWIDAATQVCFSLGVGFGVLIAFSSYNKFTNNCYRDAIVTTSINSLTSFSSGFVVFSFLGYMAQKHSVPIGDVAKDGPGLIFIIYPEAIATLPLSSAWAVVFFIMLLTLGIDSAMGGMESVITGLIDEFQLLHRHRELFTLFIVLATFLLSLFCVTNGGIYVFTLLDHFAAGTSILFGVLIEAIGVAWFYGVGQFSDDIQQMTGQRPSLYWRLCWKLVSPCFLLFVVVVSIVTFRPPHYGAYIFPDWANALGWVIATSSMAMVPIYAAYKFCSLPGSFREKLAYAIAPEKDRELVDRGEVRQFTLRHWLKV
Method: as §1, §2

WT hDAT = target: T4, WT hDAT (Homo sapiens, UniProt Q01959); test: Amphetamine-induced efflux with modulator, hDAT WT; type: cell-based; conditions: 5 nM amphetamine
T4 construct: expressed in transfected cells; host or cells: COS-7, HEK293 or MDCK
T4 sequence (Q01959 whole entry): as above
Method: (§4) Efflux is terminated by collecting the supernatant. Both cells and supernatant are counted by liquid scintillation counting. Efflux is calculated as ratio of supernatant over supernatant and cells.

hDAT N93A mutant = target: T5, hDAT N93A mutant (Homo sapiens, UniProt Q01959, N93A); test: Amphetamine-induced efflux with modulator, hDAT N93A mutant; type: cell-based; conditions: low concentrations of amphetamine
T5 construct: expressed in transfected cells; host or cells: COS-7
T5 sequence (Q01959 1-620 N93A): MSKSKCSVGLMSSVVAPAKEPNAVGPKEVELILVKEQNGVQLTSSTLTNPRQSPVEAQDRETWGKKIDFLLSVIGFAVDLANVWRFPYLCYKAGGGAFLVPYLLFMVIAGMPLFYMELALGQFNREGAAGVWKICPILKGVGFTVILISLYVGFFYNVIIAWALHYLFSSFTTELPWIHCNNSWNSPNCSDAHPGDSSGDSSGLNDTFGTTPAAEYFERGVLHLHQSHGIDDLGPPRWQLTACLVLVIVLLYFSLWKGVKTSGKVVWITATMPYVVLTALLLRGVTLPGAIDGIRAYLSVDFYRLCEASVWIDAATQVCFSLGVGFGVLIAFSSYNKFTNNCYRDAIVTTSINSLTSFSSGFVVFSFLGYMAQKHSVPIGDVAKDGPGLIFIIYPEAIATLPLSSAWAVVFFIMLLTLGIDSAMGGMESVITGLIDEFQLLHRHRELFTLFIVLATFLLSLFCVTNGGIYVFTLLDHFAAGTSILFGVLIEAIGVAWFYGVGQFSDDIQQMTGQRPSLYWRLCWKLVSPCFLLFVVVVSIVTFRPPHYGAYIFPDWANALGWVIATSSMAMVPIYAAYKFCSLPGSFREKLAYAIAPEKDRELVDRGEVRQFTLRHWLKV
Method: as §4

hDAT L89C mutant (L89A) = test: Dopamine uptake inhibition assay, hDAT L89 mutant; type: cell-based, human
Method: as §3

SmSERT = SmSERT (Schistosoma mansoni, UniProt Q3I1M7); test: Transport inhibition constants, SmSERT; type: cell-based
Chain of SmSERT (Q3I1M7 entry or part of it): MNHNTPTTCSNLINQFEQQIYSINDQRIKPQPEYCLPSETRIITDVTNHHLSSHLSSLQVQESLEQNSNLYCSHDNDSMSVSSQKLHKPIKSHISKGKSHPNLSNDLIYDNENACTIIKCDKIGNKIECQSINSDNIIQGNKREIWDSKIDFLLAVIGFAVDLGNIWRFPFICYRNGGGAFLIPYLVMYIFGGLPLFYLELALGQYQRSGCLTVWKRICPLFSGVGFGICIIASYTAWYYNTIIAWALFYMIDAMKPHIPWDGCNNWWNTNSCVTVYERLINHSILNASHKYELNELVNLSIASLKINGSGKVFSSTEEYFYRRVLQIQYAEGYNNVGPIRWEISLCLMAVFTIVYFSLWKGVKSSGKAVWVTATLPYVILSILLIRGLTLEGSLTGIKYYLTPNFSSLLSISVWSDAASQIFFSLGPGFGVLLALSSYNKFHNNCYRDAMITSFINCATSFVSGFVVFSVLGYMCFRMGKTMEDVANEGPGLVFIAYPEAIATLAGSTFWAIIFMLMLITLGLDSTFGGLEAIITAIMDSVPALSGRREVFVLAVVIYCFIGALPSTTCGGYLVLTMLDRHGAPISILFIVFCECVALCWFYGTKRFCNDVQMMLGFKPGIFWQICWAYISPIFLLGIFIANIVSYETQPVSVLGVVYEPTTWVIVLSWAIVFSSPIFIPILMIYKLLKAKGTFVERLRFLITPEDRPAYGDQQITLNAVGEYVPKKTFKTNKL

SmDAT = SmDAT (Schistosoma mansoni, UniProt E9LD23); test: Transport inhibition constants, SmDAT; type: cell-based
Chain of SmDAT (E9LD23 1-727): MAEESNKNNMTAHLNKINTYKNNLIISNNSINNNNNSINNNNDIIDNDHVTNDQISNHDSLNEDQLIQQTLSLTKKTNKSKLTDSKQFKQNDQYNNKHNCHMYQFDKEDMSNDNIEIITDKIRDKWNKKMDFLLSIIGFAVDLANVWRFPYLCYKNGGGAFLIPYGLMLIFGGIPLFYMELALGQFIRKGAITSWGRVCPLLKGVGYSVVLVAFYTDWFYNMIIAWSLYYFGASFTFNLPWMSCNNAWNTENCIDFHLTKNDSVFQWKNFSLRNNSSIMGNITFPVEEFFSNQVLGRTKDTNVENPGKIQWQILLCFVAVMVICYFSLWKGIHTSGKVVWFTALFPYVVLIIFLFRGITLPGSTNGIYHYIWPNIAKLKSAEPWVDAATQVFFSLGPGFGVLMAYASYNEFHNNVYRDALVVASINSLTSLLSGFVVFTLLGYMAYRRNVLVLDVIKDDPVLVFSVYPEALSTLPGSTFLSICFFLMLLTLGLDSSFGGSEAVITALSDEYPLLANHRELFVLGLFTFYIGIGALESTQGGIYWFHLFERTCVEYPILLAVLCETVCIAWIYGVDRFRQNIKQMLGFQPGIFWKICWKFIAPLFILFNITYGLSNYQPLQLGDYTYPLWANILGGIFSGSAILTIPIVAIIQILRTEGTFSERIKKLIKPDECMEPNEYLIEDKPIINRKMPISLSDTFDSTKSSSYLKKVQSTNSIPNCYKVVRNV

[2] = target: T6, human SERT amino acid 112 mutant (N112C) (Homo sapiens, UniProt P31645, N112C); test: Amphetamine-elicited efflux, human SERT amino acid 112 mutant; type: cell-based; conditions: 1 μM amphetamine
T6 construct: The templates were full-length and nontagged human SERT in pcdna3.1; expressed in transfected cells; host or cells: COS-7
Method: (§5) COS-7 cells were maintained under the same conditions as above. Efflux experiments were performed 2 days after cell transfection with hSERT or empty vector and plating of the cells in 24-well plates. Cells were washed with room temperature PBS-CM and then loaded with 50 nM [^3H]-serotonin for 1 h. After preloading, cells were washed twice with buffer and then incubated for 10 min with or without substrates at room temperature. After incubation, the supernatant was collected, liquid scintillation fluid added, and the samples counted (Beckman LS-6500 Multi-purpose Scintillation Counter; Beckman Coulter, Brea, Calif.). The cells were solubilized in a solution of 0.1% sodium dodecyl sulfate and 0.1 M NaOH; liquid scintillation fluid was added and tubes were counted as above. All assays were done in quadruplicate.
(§6) The percentage of [^3H]-serotonin efflux among different treatments was calculated by adding counts of supernatant plus cell lysis, with the supernatant counts then divided by the total and multiplied by 100 to yield the percentage of efflux.
(§7) To investigate the role of central domains formed by TMD1 and 6 within SERT, chimeras were produced between the human and parasite SERT and TMD1 and 2 or 6 and 7, respectively, were replaced in the human SERT with their parasite counterparts. […]

[3] = target: T7, human SERT amino acid 328 mutant (D328C) (Homo sapiens, UniProt P31645, D328C); test: Amphetamine-elicited efflux, human SERT amino acid 328 mutant; type: cell-based; conditions: 1 μM amphetamine
T7 construct: The templates were full-length and nontagged human SERT in pcdna3.1; expressed in transfected cells; host or cells: COS-7
Method: as §5, §6, §7

mSERT mutant YETQ-L563V [4] = test: Substrate-elicited efflux, mSERT mutant YETQ-L563V; type: cell-based, mouse; conditions: up to highest testable concentration
Method: as §4

wild-type human SERT = wild-type human SERT (Homo sapiens, UniProt P31645); test: Amphetamine-elicited efflux, wild-type human SERT; type: cell-based; set-up: The templates were full-length and nontagged human SERT in pcdna3.1; expressed in transfected cells; host or cells: COS-7, HEK293 or MDCK (uptake); COS-7 (efflux); conditions: 1 μM amphetamine
Method: as §5, §6, §7

NET [5] = target: T2, NET; test: hNET uptake assay with transporter modulators; type: cell-based
mSERT mutant YETQ-L563V [6] = test: Serotonin uptake kinetics, mSERT mutant YETQ-L563V; type: cell-based, mouse; conditions: read-out: apparent affinity (Km)
[7] = substrate: NCCc1c[nH]c2ccc(O)cc12; test: cells, lysate or membranes; conditions: other: WT mSERT
[8] = read-out: Ki transport inhibition SmDAT

COc1cc(C(C(=O)NCCC(C)C)N(CCCO)C(=O)c2snc(C(N)=O)c2N)ccc1O (centres unmarked) [ATM2, 4-amino-N^5-{1-(4-hydroxy-3-methoxyphenyl)-2-[(3-methylbutyl)amino]-2-oxoethyl}-N^5-(3-hydroxypropyl)-1,2-thiazole-3,5-dicarboxamide]
effect on SERT uptake activity / specificity (SERT): higher activity towards SERT | shape of concentration response on transporter uptake (SERT): biphasic mode of action, enhancing transporter activity at low concentrations and inhibiting transporter function at higher concentrations | effect on affinity of amphetamine for NET (NET [1]): affinity for amphetamine was enhanced

CCc1ccc2[nH]c3nc(SCCNS(=O)(=O)c4ccc(NC(C)=O)cc4)nnc3c2c1 [ATM5]
effect on DAT uptake activity / specificity (hDAT): higher activity towards hDAT than hSERT | shape of concentration response on hDAT uptake (hDAT): biphasic activity enhancing hDAT activity at low concentrations and inhibiting hDAT function at higher concentrations | effect on DAT uptake activity / specificity (hDAT; listed as KM-822): specific for DAT | effect on amphetamine-mediated efflux (WT hDAT): potentiated amphetamine-mediated efflux; also recorded: potentiated amphetamine mediated efflux | effect on amphetamine-elicited efflux (hDAT N93A mutant): blocking amphetamine-elicited efflux; also recorded: blocked | affinity of mutant for ATM5 versus WT (hDAT L89C mutant (L89A)): increased affinity for ATM5

CC(N)Cc1ccccc1 (centres unmarked) [Amphetamine]
Ki (SmSERT): 393 ± 26 µM | Ki (SmDAT): 10 ± 0.5 µM | amphetamine-elicited efflux [2]: no significant amphetamine-elicited efflux | amphetamine-elicited efflux [3]: no significant amphetamine-elicited efflux | reversal of transport (efflux) (mSERT mutant YETQ-L563V [4]): did not elicit any significant reversal of transport | amphetamine-elicited efflux (wild-type human SERT): substantial efflux

CC(NC(C)(C)C)C(=O)c1cccc(Cl)c1 (centres unmarked) [Bupropion]
Ki (SmDAT; [8]): 242 ± 36 µM

CN(C)CCCC1(c2ccc(F)cc2)OCc2cc(C#N)ccc21 (centres unmarked) [Citalopram]
Ki (SmDAT; [8]): 50.5 ± 4.7 µM

COC(=O)[C@H]1[C@@H](OC(=O)c2ccccc2)C[C@@H]2CC[C@H]1N2C [Cocaine]
Ki (SmSERT): 35.4 ± 7.6 µM | Ki (SmDAT; [8]): 29.4 ± 3.6 µM

CN(C)CCCN1c2ccccc2CCc2ccccc21 [Imipramine]
Ki (SmSERT): 0.3 ± 0.1 µM

COc1cccc(NC(=O)Cn2c(SCC(=O)Nc3ccc(F)cc3)nnc2-c2ccncc2)c1 [KM-409, N-(4-fluorophenyl)-2-((4-(2-((3-methoxyphenyl)amino)-2-oxoethyl)-5-(pyridin-4-yl)-4H-1,2,4-triazol-3-yl)thio)acetamide]
activity towards NET (NET [5]): displayed activity towards NET

NCCc1c[nH]c2ccc(O)cc12 [serotonin]
Km (mSERT mutant YETQ-L563V [6]): 4.7 ± 1.3 µM

B1: WT mSERT (Mus musculus) (protein)
chain: METTPLNSQKVLSECKDKEDCQENGVLQKGVPTPADKAGPGQISNGYSAVPSTSAGDEAPHSTPAATTTLVAEIHQGERETWGKKMDFLLSVIGYAVDLGNIWRFPYICYQNGGGAFLLPYTIMAIFGGIPLFYMELALGQYHRNGCISIWKKICPIFKGIGYAICIIAFYIASYYNTIIAWALYYLISSFTDQLPWTSCKNSWNTGNCTNYFAQDNITWTLHSTSPAEEFYLRHVLQIHQSKGLQDLGTISWQLALCIMLIFTIIYFSIWKGVKTSGKVVWVTATFPYIVLSVLLVRGATLPGAWRGVVFYLKPNWQKLLETGVWVDAAAQIFFSLGPGFGVLLAFASYNKFNNNCYQDALVTSVVNCMTSFVSGFVIFTVLGYMAEMRNEDVSEVAKDAGPSLLFITYAEAIANMPASTFFAIIFFLMLITLGLDSTFAGLEGVITAVLDEFPHIWAKRREWFVLIVVITCILGSLLTLTSGGAYVVTLLEEYATGPAVLTVALIEAVVVSWFYGITQFCSDVKEMLGFSPGWFWRICWVAISPLFLLFIICSFLMSPPQLRLFQYNYPHWSIILGYCIGTSSVICIPIYIIYRLISTPGTLKERIIKSITPETPTEIPCGDIRMNAV
Km [7]: 3.4 ± 0.7 µM
